pKi: −log10 of the molar value. Values after ≈ are worked out from the molar mass of the structure shown. Like-named read-outs stand apart in the source and are kept apart here.
Columns and labels:
IL-1β = assay: PHA-induced release of IL-1β from human buffy coats; format: cell-based; settings: PHA 5 μg/ml, 16 hours, inhibition
Procedure: (§1) The study was conducted in two phases. The first phase included optimization of the test methodology and included also dose-range finding studies, using buffy coats from 3 human donors, stimulated with phytohemagglutinin (PHA). The concentrations of the test article and the duration of exposure were optimized to obtain acceptable dose-response ratios. Following optimization of the test conditions, a final protocol was issued. In the Main Study, buffy coats from 5 healthy human male donors were stimulated with PHA, 5 μg/ml.
(§2) The inhibitory effects of three concentrations of NK and one concentration of ketotifen were evaluated in the Main Study. The buffy coats were resuspended in assay media and were pre-incubated for 30 min with either vehicle/saline, ketotifen (10 μM) or norketotifen (1.0; 10 or 100 μM). Following these preincubations, the white blood cell suspensions were stimulated for 16 hours with PHA, 5 μg/ml. The cell system supernatants were then harvested and stored frozen.

immune system = assay: Repeat-dose toxicology studies, signs of immune system suppression; format: in vivo; settings: repeat-dose toxicology studies: hematology, clinical chemistry, histopathology, organ and body weight indicators
Candida albicans = assay: Antimicrobial activity (MIC), Candida albicans; format: cell-based; settings: Fungi: Ca, MIC refers to lethal concentrations
Klebsiella pnemoniae = assay: Antimicrobial activity (MIC), Klebsiella pnemoniae; format: cell-based; settings: Bacteria: Kp, MIC refers to lethal concentrations
Trichophyton rubrum = assay: Antimicrobial activity (MIC), Trichophyton rubrum; format: cell-based; settings: Mold: Tr, MIC refers to lethal concentrations
Staphylococcus aureus = assay: Antimicrobial activity (MIC), Staphylococcus aureus; format: cell-based; settings: Bacteria: Sa, MIC refers to lethal concentrations
IL-4 = assay: PHA-induced release of IL-4 from human buffy coats; format: cell-based; settings: PHA 5 μg/ml, 16 hours, inhibition
Procedure: as §1, §2

sedation [1] = settings: orally administered, dogs; U.S. Pat. No. 8,557,846; cited from earlier work
sedation [2] = settings: art-accepted mouse model of sedation; U.S. Pat. Nos. 7,226,934 and 7,557,128; cited from earlier work
IL-10 = assay: PHA-induced release of IL-10 from human buffy coats; format: cell-based; settings: PHA 5 μg/ml, 16 hours, inhibition
Procedure: as §1, §2

Aspergillus fumigatus = assay: Antimicrobial activity (MIC), Aspergillus fumigatus; format: cell-based; settings: Fungi: Af, MIC refers to lethal concentrations
[3] = Lung/plasma distribution of norketotifen in dogs; format: in vivo, Beagle dogs; settings: for Post-dose Lung Concentration / Post-dose Plasma Concentration / Kp: dog; for Post-dose Lung Concentration / Post-dose Plasma Concentration: oral 8.0 mg/kg/day NK-FB for four days; for Kp: female, Beagle, lung/plasma, 11.46 mg/kg/day
Procedure: One group (N=3) of female Beagle dogs (8 to 10 kg/24 to 28 months) were administered racemic norketotifen hydrogen fumarate (RS-NK-HF) 11.46 mg/kg/day for 4 consecutive days. (11.46 mg of NK-HF is equal to 8.0 mg of the free base (RS-NK-FB).
Plasma samples were collected daily on Days 2, 3 and 4. The last blood samples were taken four hours after dosing on Day 4. Lung and plasma concentrations of norketotifen were determined using a qualified LC-MS-MS analytical method. LLQ was <0.5 ng/ml. Immediately after blood collection on Day 4, all animals were euthanized with an overdose of pentobarbital, administered intravenously, followed by exsanguination. Lung tissue samples (approximately 1 g each) were collected from each animal from the left and right pulmonary lobes, samples were trimmed and dried of any access blood using absorbent paper, weighed and then kept in conical tubes frozen on dry ice and stored at −80° C. pending analysis. Six samples from each animal (3 samples per side) were analyzed.

Streptococcus pneumoniae = assay: Antimicrobial activity (MIC), Streptococcus pneumoniae; format: cell-based; settings: Bacteria: Sp, MIC refers to lethal concentrations
[4] = system: Staphylococcus intermedius; assay: Antimicrobial activity (MIC), Staphylococcus intermedius; format: cell-based; settings: Bacteria: Si, MIC refers to lethal concentrations
IFN-γ = assay: PHA-induced release of IFN-γ from human buffy coats; format: cell-based; settings: PHA 5 μg/ml, 16 hours, inhibition
Procedure: as §1, §2

[5] = system: Trichophyton interdigitale; assay: Antimicrobial activity (MIC), Trichophyton interdigitale; format: cell-based; settings: Mold: Ti, MIC refers to lethal concentrations
human M-3 (hM3) receptor = human M-3 (hM3) receptor (Homo sapiens, UniProt P20309); assay: Muscarinic M-3 receptor binding assay; settings: calculated from mean values, as norketotifen free base; NK hydrogen fumarate tested in duplicates, 1.0E-08M to 1.0E-04M
Chain of human M-3 (hM3) receptor (P20309 whole entry): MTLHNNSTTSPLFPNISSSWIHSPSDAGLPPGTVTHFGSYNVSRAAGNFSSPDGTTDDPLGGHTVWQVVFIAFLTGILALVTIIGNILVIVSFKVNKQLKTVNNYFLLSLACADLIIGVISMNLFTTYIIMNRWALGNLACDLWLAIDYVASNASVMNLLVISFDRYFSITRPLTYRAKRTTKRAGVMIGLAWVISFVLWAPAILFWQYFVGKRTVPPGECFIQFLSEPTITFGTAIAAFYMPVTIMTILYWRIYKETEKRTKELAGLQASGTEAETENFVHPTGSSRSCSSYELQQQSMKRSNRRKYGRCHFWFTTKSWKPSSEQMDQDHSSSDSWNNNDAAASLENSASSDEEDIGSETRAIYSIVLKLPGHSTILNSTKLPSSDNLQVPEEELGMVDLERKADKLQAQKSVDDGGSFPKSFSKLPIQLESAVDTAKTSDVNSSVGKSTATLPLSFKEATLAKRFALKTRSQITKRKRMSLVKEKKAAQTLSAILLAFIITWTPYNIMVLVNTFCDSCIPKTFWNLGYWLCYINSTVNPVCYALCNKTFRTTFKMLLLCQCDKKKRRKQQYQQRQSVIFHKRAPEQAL
Text: The current study used human M-3 (hM3) receptor and NK hydrogen fumarate was the antagonist in the current studies. The study used NK in duplicates at five dose-levels from 1.0E-08M to 1.0E-04M.

sedation [6] = settings: orally administered, humans; U.S. Pat. Nos. 9,138,431 and 9,345,697; cited from earlier work
IL-2 = assay: PHA-induced release of IL-2 from human buffy coats; format: cell-based; settings: PHA 5 μg/ml, 16 hours, inhibition
Procedure: as §1, §2

[7] = system: Methicillin-resistant S. aureus; assay: Antimicrobial activity (MIC), MRSA; format: cell-based; settings: Staphylococcus aureus; Bacteria: MRSA; MIC refers to lethal concentrations
Malassezia pachydermatis = assay: Antimicrobial activity (MIC), Malassezia pachydermatis; format: cell-based; settings: Fungi: Mp, MIC refers to lethal concentrations

O=C1Cc2ccccc2C(=C2CCNCC2)c2ccsc21 (racemic) [norketotifen]
Effect on PHA-induced release of IL-1β (%) (IL-1β; 1 uM): 0.00%
Effect on PHA-induced release of IL-1β (%) (IL-1β; 10 uM): 16.20%
Effect on PHA-induced release of IL-1β (%) (IL-1β; 100 uM): 57.00^1%
Signs of immune system suppression (immune system): no signs of immune system suppression
MIC (Candida albicans): 1000 µg/mL (≈ 3390 µM)
MIC (Klebsiella pnemoniae): 500 µg/mL (≈ 1690 µM)
MIC (Trichophyton rubrum): 500 µg/mL (≈ 1690 µM)
MIC (Staphylococcus aureus): 500 µg/mL (≈ 1690 µM)
Effect on PHA-induced release of IL-4 (%) (IL-4; 1 uM): 0.00%
Effect on PHA-induced release of IL-4 (%) (IL-4; 10 uM): 14.32%
Effect on PHA-induced release of IL-4 (%) (IL-4; 100 uM): 98.27^1%
Sedative side effects (sedation [1]): free from sedative side effects
Sedative effects (sedation [2]): significant sedative effects
Effect on PHA-induced release of IL-10 (%) (IL-10; 1 uM): 12.71^2%
Effect on PHA-induced release of IL-10 (%) (IL-10; 10 uM): 24.80^2%
Effect on PHA-induced release of IL-10 (%) (IL-10; 100 uM): 90.40^1%
MIC (Aspergillus fumigatus): 4000 µg/mL (≈ 13500 µM)
Post-dose Lung Concentration ([3]; animal 001, Day 4): 23590 ng/g
Post-dose Plasma Concentration ([3]; animal 001, Day 4): 301 ng/mL
Post-dose Lung Concentration ([3]; animal 002, Day 4): 79546 ng/g
Post-dose Plasma Concentration ([3]; animal 002, Day 4): 1651 ng/mL
Post-dose Lung Concentration ([3]; animal 003, Day 4): 61093 ng/g
Post-dose Plasma Concentration ([3]; animal 003, Day 4): 733 ng/mL
Kp ([3]; oral, animal 001, Day 4, read-out: Lung / Plasma Ratio in Dogs): 78.4
Kp ([3]; oral, animal 002, Day 4, read-out: Lung / Plasma Ratio in Dogs): 48.2
Kp ([3]; oral, animal 003, Day 4, read-out: Lung / Plasma Ratio in Dogs): 83.3
Kp ([3]; po, mean of three dogs, Day 4, once daily oral dosing, read-out: Lung / Plasma Ratio in Dogs, Mean ± SEM): 70
Lung / Plasma Ratio in Dogs, Mean ± SEM ([3]; mean of three dogs, Day 4, once daily oral dosing, listed as NK): 70.0 ± 11.0
MIC (Streptococcus pneumoniae): 500 µg/mL (≈ 1690 µM)
MIC (Streptococcus pneumoniae; Streptococcus pneumoniae, read-out: MIC): 500 µg/mL (≈ 1690 µM)
MIC [4]: 250 µg/mL (≈ 846 µM)
Effect on PHA-induced release of IFN-γ (%) (IFN-γ; 1 uM): 0.00%
Effect on PHA-induced release of IFN-γ (%) (IFN-γ; 10 uM): 16.54^2%
Effect on PHA-induced release of IFN-γ (%) (IFN-γ; 100 uM): 71.56^1%
MIC [5]: 500 µg/mL (≈ 1690 µM)
pKi (human M-3 (hM3) receptor): 5.66
Sedative side effects (sedation [6]): free from sedative side effects
Effect on PHA-induced release of IL-2 (%) (IL-2; 1 uM): 0.00%
Effect on PHA-induced release of IL-2 (%) (IL-2; 10 uM): 46.63^1%
Effect on PHA-induced release of IL-2 (%) (IL-2; 100 uM): 93.47^1%
MIC [7]: 2000 µg/mL (≈ 6770 µM)
MIC (Malassezia pachydermatis): 1000 µg/mL (≈ 3390 µM)
